Earlier results as cited in US20070059365A1, “Novel formulation of ropinirole” (priority 2003, published 2007).

Details: in vivo

half-life of ropinirole: 5 to 6 h
Compound: CCCN(CCC)CCc1cccc2c1CC(=O)N2.Cl [ropinirole, 4-(2-di-n-propylaminoethyl)-2(3H)-indolone hydrochloride]
